From patent US7468369B2, “Sulfonyl pyrrolidines, method for producing the same and their use as drugs” (Sanofi-Aventis, priority 2005, dated 2008)

Test system: human ABCA1 promoter
Experiment: ABCA1 promoter test (luciferase reporter in stably transfected THP1 cell line)
Assay type: cell-based
Conditions: Homo sapiens, THP-1; ABCA1 reporter cell line (THP1, PMA-differentiated), 24 h incubation, luciferase chemiluminescence; read-out: E50 ABCA1
Procedure: The potency of substances which activate expression of the human ABCA1 gene via its promoter is analyzed by using a stably transfected THP1 cell line (human monocyte cell line) which is referred to herein as ABCA1 reporter cell line. It contains a fragment, 3.2 kb in size and stably integrated into the genome, of the human ABCA1 promoter in front of a luciferase reporter element. Expression of the luciferase reporter gene is only low without addition of an ABCA1 expression activator. The substances stimulating ABCA1 expression bring about, via activation of the ABCA1 promoter, an enhanced expression of the luciferase reporter gene. The luciferase which is formed can be detected via an appropriate substrate by means of chemiluminescence.
Construction of the Cell Line
The ABCA1 reporter line was prepared as follows: firstly the neomycin resistance gene (Acc. No.: AJ000156) was introduced into the luciferase reporter plasmid pLG3basic (#1751, Promega) 3′ below the luciferase reporter element. Subsequently, an ABCA1 promoter fragment, 3.2 kb in size and amplified from human genomic DNA (#6550-1, Clontech) by the polymerase chain reaction, was cloned in 5′ above the luciferase reporter element. The reporter plasmid produced in this way was called pGL3BN-ABCA1P. Luciferase expression in this plasmid is controlled by the ABCA1 promoter. Cloning and sequencing of the construct took place in analogy to the description in Sambrook J et al. (Molecular cloning, Cold Spring Harbor Laboratory Press, 1989). For stable transfection into THP1 cells, firstly pGL3BN-ABCA1P was linearized with a restriction endonuclease and then introduced into the THP1 cells as stated in Ausubel, F. M. et al. (Current protocols in molecular biology, Vol. 1-3, John Wiley & Sons, Inc., 1995).
The activity of ABCA1 expression activators is determined in a 3-day test which is described below:
The ABCA1 reporter cell line comprises suspension cells. These are cultured until the concentration is 0.5×10^6 cells/ml in RPMI medium (#52400-025, Invitrogen) which is mixed with the following additions: 10% FCS (fetal calf serum; #16000-044, invitrogen), 0.5 mg/ml Geneticin (#10131-019, invitrogen) and 1% penicillin-streptomycin solution (#15140-122, invitrogen). The culturing takes place in standard cell culture flasks (#353112, Becton Dickinson) in a cell culture incubator at 37° C. in the presence of 5% CO2.
For the ABCA1 promoter test, the suspension cells are centrifuged at 1200 rpm in 50 ml tubes. The supernatant is aspirated off, and the pellet is resuspended in 15 ml of RPMI medium and counted in a cell counter. After dilution to 175 000 cells/ml, 0.1 μg/ml PMA (phorbol 12-myristate 13-acetate, #8139-5MG, Sigma) is added in order to induce differentiation of the monocytic THP1 suspension cells into adherent macrophages. 35 000 cells in each well are seeded in a 96-well microtiter plate with clear plastic base (#3610, Corning Costar). The plates are incubated in a cell culture incubator at 37° C. and 5% CO2 for 24 h.
The ABCA1 expression activators to be tested are dissolved in a concentration of 10 mM in DMSO. This stock solution is diluted in the RPMI medium (mixed with 0.1 μg/ml PMA) described above. Test substances are tested in 11 different concentrations in the range from […] to 330 pM. The medium of the ABCA1 reporter cell line seeded on day 1 is completely removed by aspiration and the diluted test substances are immediately added to the cells. The dilution and addition of the substances takes place with a pipetting robot (Beckman FX). The final volume of the test substances diluted in medium is 100 μl per well of a 96-well microtiter plate. The DMSO concentration in the test is less than 0.1% v/v in order to avoid cytotoxic effects of the solvent.
The test plates are incubated in an incubator at 37° C. and 5% CO2 for 24 h.
The ABCA1 reporter cells treated with the test substances are removed from the incubator and the medium is aspirated off. […]

Row | SMILES | EC50 [nM]
1 | Cc1ccc(N2CCN(C(=O)[C@@H]3CN(S(=O)(=O)c4cc(Br)c(Br)s4)C[C@H]3c3ccccc3)CC2)c(C)c1 (racemic) [Example 37, [1-(4,5-Dibromothiophene-2-sulfonyl)-3,4-trans-4-phenylpyrrolidin-3-yl]-[4-(2,4-dimethylphenyl)piperazin-1-yl]methanone] | 2570
2 | Cc1ccc(N2CCN(C(=O)[C@@H]3CN(S(=O)(=O)c4ccc(Cl)s4)C[C@H]3c3ccccc3)CC2)c(C)c1 (racemic) [Example 38, [1-(5-Chlorothiophene-2-sulfonyl)-3,4-trans-4-phenylpyrrolidin-3-yl]-[4-(2,4-dimethylphenyl)piperazin-1-yl]methanone] | 2660
3 | Cc1ccc(N2CCN(C(=O)[C@@H]3CN(S(=O)(=O)c4cc(Cl)c(Cl)s4)C[C@H]3c3ccccc3)CC2)c(C)c1 (racemic) [Example 39] | 3730
4 | Cc1ccc(N2CCN(C(=O)[C@@H]3CN(S(=O)(=O)c4cccs4)C[C@H]3c3ccccc3)CC2)cc1C (racemic) [Example 42, [4-(3,4-Dimethylphenyl)piperazin-1-yl]-[3,4-trans-4-phenyl-1-(thiophene-2-sulfonyl)pyrrolidin-3-yl)methanone] | 18800
5 | Cc1ccc(N2CCN(C(=O)[C@@H]3CN(S(=O)(=O)c4cc(Br)c(Br)s4)C[C@H]3c3ccccc3)CC2)cc1C (racemic) [Example 43, [1-(4,5-Dibromothiophene-2-sulfonyl)-3,4-trans-4-phenylpyrrolidin-3-yl]-[4-(3,4-dimethylphenyl)piperazin-1-yl]methanone] | 4080
6 | Cc1ccc(N2CCN(C(=O)[C@@H]3CN(S(=O)(=O)c4ccc(Cl)s4)C[C@H]3c3ccccc3)CC2)cc1C (racemic) [Example 44, [1-(5-Chlorothiophene-2-sulfonyl)-3,4-trans-4-phenylpyrrolidin-3-yl]-[4-(3,4-dimethylphenyl)piperazin-1-yl]methanone] | 15100
7 | Cc1ccc(N2CCN(C(=O)[C@@H]3CN(S(=O)(=O)c4cc(Cl)c(Cl)s4)C[C@H]3c3ccccc3)CC2)cc1C (racemic) [Example 45] | 4620
8 | COC(=O)c1cc(C)c(S(=O)(=O)N2C[C@@H](C(=O)N3CCN(c4cc(C)ccc4C)CC3)[C@H](c3ccccc3)C2)s1 (racemic) [Example 50, Methyl 5-{3,4-trans-3-[4-(2,5-dimethylphenyl)piperazine-1-carbonyl]-4-phenylpyrrolidine-1-sulfonyl}-4-methylthiophene-2-carboxylate] | 7340
9 | Cc1ccc(C)c(N2CCN(C(=O)[C@@H]3CN(S(=O)(=O)c4sc5ccc(Cl)cc5c4C)C[C@H]3c3ccccc3)CC2)c1 (racemic) [Example 51, [1-(5-Chloro-3-methylbenzo[b]thiophene-2-sulfonyl)-3,4-trans-4-phenyl-pyrrolidin-3-yl]-[4-(2,5-dimethylphenyl)piperazin-1-yl]methanone] | 2770
10 | Cc1cccc(N2CCN(C(=O)[C@@H]3CN(S(=O)(=O)c4cccs4)C[C@H]3c3ccccc3)CC2)c1C (racemic) [Example 52] | 3270
11 | Cc1cccc(N2CCN(C(=O)[C@@H]3CN(S(=O)(=O)c4cc(Br)c(Br)s4)C[C@H]3c3ccccc3)CC2)c1C (racemic) [Example 53, [1-(4,5-Dibromothiophene-2-sulfonyl)-3,4-trans-4-phenylpyrrolidin-3-yl]-[4-(2,3-dimethylphenyl)piperazin-1-yl]methanone] | 5760
12 | Cc1cccc(N2CCN(C(=O)[C@@H]3CN(S(=O)(=O)c4ccc(Cl)s4)C[C@H]3c3ccccc3)CC2)c1C (racemic) [Example 54, [1-(5-Chlorothiophene-2-sulfonyl)-3,4-trans-4-phenylpyrrolidin-3-yl]-[4-(2,3-dimethylphenyl)piperazin-1-yl]methanone] | 4630
13 | COc1ccc(N2CCN(C(=O)[C@@H]3CN(S(=O)(=O)c4ccc(Cl)s4)C[C@H]3c3ccccc3)CC2)cc1 (racemic) [Example 60, [1-(5-Chlorothiophene-2-sulfonyl)-3,4-trans-4-phenylpyrrolidin-3-yl]-[4-(4-methoxyphenyl)piperazin-1-yl]methanone] | 6680
14 | COc1ccc(N2CCN(C(=O)[C@@H]3CN(S(=O)(=O)c4cc(Cl)c(Cl)s4)C[C@H]3c3ccccc3)CC2)cc1 (racemic) [Example 61, [1-(4,5-Dichlorothiophene-2-sulfonyl)-3,4-trans-4-phenylpyrrolidin-3-yl]-[4-(4-methoxyphenyl)piperazin-1-yl]methanone] | 2610
15 | O=C([C@@H]1CN(S(=O)(=O)c2cc(Br)c(Br)s2)C[C@H]1c1ccccc1)N1CCN(c2ccccc2)CC1 (racemic) [Example 64, [1-(4,5-Dibromothiophene-2-sulfonyl)-3,4-trans-4-phenylpyrrolidin-3-yl]-(4-phenylpiperazin-1-yl)methanone] | 3160

The next molecules have a lower EC50 than those just listed; values first:

Row | EC50 [nM] | SMILES
16 | 706 | Cc1ccc(C)c(N2CCN(C(=O)[C@@H]3CN(S(=O)(=O)c4ccc(Cl)s4)C[C@H]3c3ccccc3)CC2)c1 (racemic) [Example 48, [1-(5-Chlorothiophen-2-sulfonyl)-3,4-trans-4-phenylpyrrolidin-3-yl]-[4-(2,5-dimethylphenyl)piperazin-1-yl]methanone]
17 | 1950 | Cc1ccc(C)c(N2CCN(C(=O)[C@@H]3CN(S(=O)(=O)c4cc(Cl)c(Cl)s4)C[C@H]3c3ccccc3)CC2)c1 (racemic) [Example 49, [1-(4,5-Dichlorothiophene-2-sulfonyl)-3,4-trans-4-phenylpyrrolidin-3-yl]-[4-(2,5-dimethylphenyl)piperazin-1-yl]methanone]
18 | 826 | Cc1cccc(N2CCN(C(=O)[C@@H]3CN(S(=O)(=O)c4cc(Cl)c(Cl)s4)C[C@H]3c3ccccc3)CC2)c1C (racemic) [Example 55, [1-(4,5-Dichlorothiophene-2-sulfonyl)-3,4-trans-4-phenylpyrrolidin-3-yl]-[4-(2,3-dimethylphenyl)piperazin-1-yl]methanone]
19 | 1160 | COc1ccc(N2CCN(C(=O)[C@@H]3CN(S(=O)(=O)c4cc(Br)c(Br)s4)C[C@H]3c3ccccc3)CC2)cc1 (racemic) [Example 59]
20 | 2190 | Cc1ccc(C)c(N2CCN(C(=O)[C@@H]3CN(S(=O)(=O)c4cccs4)C[C@H]3c3ccccc3)CC2)c1 (racemic) [Example 67, [4-(2,5-Dimethylphenyl)piperazin-1-yl]-[3,4-trans-4-phenyl-1-(thiophene-2-sulfonyl)pyrrolidin-3-yl]methanone]
21 | 330 | COc1cccc(S(=O)(=O)N2C[C@@H](C(=O)N3CCN(c4cc(C)ccc4C)CC3)[C@H](c3ccccc3)C2)c1 (racemic) [Example 69, [4-(2,5-Dimethylphenyl)piperazin-1-yl]-[1-(3-methoxybenzenesulfonyl)-3,4-trans-4-phenylpyrrolidin-3-yl]methanone]
22 | 381 | Cc1ccc(C)c(N2CCN(C(=O)[C@@H]3CN(S(=O)(=O)c4c(C)noc4C)C[C@H]3c3ccccc3)CC2)c1 (racemic) [Example 71, [1-(3,5-Dimethylisoxazole-4-sulfonyl)-3,4-trans-4-phenylpyrrolidin-3-yl]-[4-(2,5-dimethylphenyl)piperazin-1-yl]methanone]
23 | 459 | COc1cccc(S(=O)(=O)N2C[C@@H](C(=O)N3CCN(c4c(C)cccc4C)CC3)[C@H](c3ccccc3)C2)c1 (racemic) [Example 86]
